Like-named read-outs stand apart in the source and are kept apart here.
System: Burkholderia solanacearum
Format: cell-based
Details: 100 μg/ml undialyzed protein, 1 hour, room temperature

| Molecule | Reduction [%] (relative inactivation) | Reduction [%] (relative inactivation) (listed as POLYKZ144) |
| --- | --- | --- |
| phiKZgp144: SEQ ID NO: 1: unmodified modular endolysin originating from Pseudomonas aeruginosa phage φKZ [reference compound] | 0% | – |
| POLY-gp144: SEQ ID NO: 35: phiKZgp144 (SEQ ID NO: 1) with N-terminal peptide stretch KRKKRKKRK (SEQ ID NO: 11) (protein, POLY-gp144) MGSKRKKRKKRKKVLRKGDRGDEVCQLQTLLNLCGYDVGKPDGIFGNNTFNQVVKFQKDNCLDSDGIVGKNTWAELFSKYSPPIPYKTIPMPTANKSRAAATPVMNAVENATGVRSQLLLTFASIESAFDYEIKAKTSSATGWFQFLTGTWKTMIENYGMKYGVLTDPTGALRKDPRISALMGAELIKENMNILRPVLKREPTDTDLYLAHFFGPGAARRFLTTGQNELAATHFPKEAQANPSIFYNKDGSPKTIQEVYNLMDGKVAAHRK | – | 99-99.9% |
